Experimental data taken from patent US8435950B2, “Anti-aging peptides and cosmetic and/or pharmaceutical composition containing same” (ISP Investments, priority 2009, dated 2013).
Where no end group is shown, it is not given here.

Columns and labels:
[1] = system: Clock protein; assay: Western blot of Clock protein expression in cultured fibroblasts; format: cell-based; conditions: 16 hr, peptide diluted to 1% (from a 10^-4M solution), untreated control = 100%, Experiment 1
Procedure: (§1) A study of the activating effect of the peptide SEQ ID no.1 was carried out by evaluating the expression of the Clock protein by western blot in cultured fibroblasts and by immunohistochemistry by labeling the Clock protein by means of immunolabeling. The technique of western blotting is a semi-quantitative method which makes it possible to evaluate the level of Clock protein in dermal cells.
Cultured fibroblasts are cultivated in containers with a diameter of 100 mm at 37° C. in a humidified atmosphere containing 5% CO2 for 16 hr in the presence or absence of the peptide SEQ ID no.1, diluted to 1% (from a 10^−4M solution). The cells are rinsed and then removed from the support with the aid of an extraction buffer (20 mM TRIS, 150 mM NaCl, 10 mM EDTA, 0.2% triton […]) in the presence of a cocktail of protease inhibitors (Sigma). The proteins thus extracted are centrifuged at 4° C. at 10000 rpm, before being dosed by the BCA protein dosing kit (Pierce). The cellular lysates are mixed with a denaturing buffer and subjected to SDS-PAGE electrophoresis. The gel used is 4-12% Nupage (Invitrogen). The proteins are then transferred to a nitrocellulose membrane (Pal corporation). […] The quantitative evaluation of the proteins present in the cells was carried out using the chemiimager software (Alpha innotech Corporation USA).

[2] = system: Clock protein; assay: Immunohistochemistry (immunolabeling) of Clock protein in cultured fibroblasts; format: cell-based; conditions: 18 hr, peptide diluted 1% (from a 10^-4M solution), versus untreated
Procedure: as §1
Cultured fibroblasts are cultivated in 8-well chambers (labteck) at 37° C. in a humidified atmosphere containing 5% CO2 for 18 hr in the presence or absence of the peptide SEQ ID no.1, diluted 1% (from a 10^−4M solution). Untreated cells are cultivated at the same time and serve as a control. On the day of labeling the cells are rinsed, fixed in a mixture (2% glutaraldehyde—2% formaldehyde) for 3 minutes and then rinsed. The primary antibody (ABcam), diluted 1/250 is applied for 1 hour and a secondary antibody, diluted 1/50 and coupled to a fluorochrome is applied for 1 hour. The cells are then mounted between a slide and cover glass in a suitable mounting medium and observed under epifluorescence microscope.

[3] = system: Clock protein; assay: Ex vivo immunolabeling of Clock protein in skin biopsies; format: cell-based; conditions: human skin ex vivo, peptide diluted to 1%, topical, 48 hr
Procedure: (§2) A study of the activating effect of the peptide SEQ ID no.1 was carried out by evaluating the expression of Clock and Per-1 proteins in skin biopsies ex vivo.
(§3) Ex vivo studies by immunolabeling have made it possible to evidence the expression of Clock and Per-1 proteins in skin samples. Samples of human skin are cultured at the air/liquid interface. The peptide SEQ ID no.1 diluted to 1% (from a 10^−4M solution) is applied topically to these samples for 48 hr at a rate of two times per 24 hr.
(§4) Skin samples not treated with the peptide SEQ ID no.1 serve as a control. The skin samples are fixed with 10% formaldehyde and enclosed in paraffin. Sectional cuts of 3 μm are then made with a microtome. The immunolabeling is carried out after removal of the paraffin and unmasking of the antigenic sites.
The immunolabeling for the Clock protein is carried out by means of an antibody (ABcam) diluted 1/250 and a secondary antibody diluted 1/50 and coupled to a fluorochrome.
(§5) The slides are then mounted in a suitable medium and observed under epifluorescence microscope (Nikon Eclipse E600).

[4] = system: Per-1 protein; assay: Ex vivo immunolabeling of Per-1 protein in skin biopsies; format: cell-based; conditions: human skin ex vivo, peptide diluted to 1%, topical, 48 hr
Procedure: as §2, §3, §4
The immunolabeling for the Per-1 protein is carried out by a polyclonal antibody (Cosmobio) diluted 1/100 and a secondary antibody diluted 1/50 and coupled to a fluorochrome.
as §5

[5] = system: Clock protein; assay: Ex vivo immunolabeling of Clock protein in skin biopsies aged artificially during culture; format: cell-based, human
Procedure: (§6) A study of the activating effect of the peptide SEQ ID no.1 was carried out by evaluating the expression of Clock and Per-1 proteins in skin models, aged artificially during culture. The analysis was carried out after 62 hr and 134 hr of culturing.
as §3, with “samples aged during culture.” for “samples.”, “interface for 62 hr and 134 hr.” for “interface.”, “samples” for “samples for 48 hr”, “day during the period of the experiment.” for “24 hr.”
as §4, with “are” for “are then”, “sites. The immunolabeling for the Clock protein is carried out by means of an antibody (ABcam) diluted 1/250 and a secondary antibody diluted 1/50 and coupled to a fluorochrome.” for “sites.”
as §5

[6] = system: Per-1 protein; assay: Ex vivo immunolabeling of Per-1 protein in skin biopsies aged artificially during culture; format: cell-based, human; conditions: after 62 hr of treatment
Procedure: as §6
as §3, with “samples aged during culture.” for “samples.”, “interface for 62 hr and 134 hr.” for “interface.”, “samples” for “samples for 48 hr”, “day during the period of the experiment.” for “24 hr.”
as §4, with “are” for “are then”, “sites. The immunolabeling for the Clock protein is carried out by means of an antibody (ABcam) diluted 1/250 and a secondary antibody diluted 1/50 and coupled to a fluorochrome.” for “sites.”
The immunolabeling for the Per-1 protein is carried out by a polyclonal antibody (Cosmobio) diluted 1/100 and a secondary antibody diluted 1/50 and coupled to a fluorochrome. […]

[7] = system: skin biopsies; assay: Protective effect on morphology of skin biopsies during aging (hematoxyline/eosin histology); format: cell-based, human; conditions: 62 and 134 h culture, peptide diluted to 1% topically twice per day; untreated skin damaged
Procedure: A study of the protective effect of the peptide SEQ ID no.1 was carried out in parallel by evaluating the damage caused by aging at 62 hr and 134 hr by way of immunohistology by means of colouration of sectional cuts of skin.
Samples of human skin are placed in culture at the air/liquid interface. The peptide SEQ ID no.1 diluted to 1% (from a 10^−4M solution) is applied topically to these samples for 62 hr and 134 hr. The application is renewed twice per day during the period of the experiment. Untreated skin samples serve as a control during the experiment. The skin samples are fixed with 4% formaldehyde and enclosed in paraffin. Sectional cuts of 3 μm are made with a microtome. The tissues are coloured using hematoxyline (which colours the cell nuclei blue-black) and eosin, which is specific to the colouration of cytoplasms. The morphological structure of the biopsies is then assessed under transmission microscope.

## Ser-Pro-Leu-Gln-NH2 (SPLQ-NH2) [SEQ ID no.1]
[1]
  Intensity (%) of Clock protein, western blot: 179%
[2]
  Expression of the Clock protein by labeling in fibroblasts: increase in the expression of the Clock protein
[3]
  Amount of Clock protein compared with untreated skin: slightly greater
[4]
  Amount of Per-1 protein compared with untreated skin: greater
[5]; after 62 hr of culturing
  Labeling of the Clock protein compared to untreated control: increased
[5]; after 134 hr
  Labeling of the Clock protein compared to untreated control skin: largely increased
[6]
  Expression of the PER-1 protein compared to untreated: increased
[7]
  Morphological structure of skin biopsies / damage caused by aging: well-preserved morphological structure
